This note sets out measurements from article PMC8071423, “A New Pyrimidine Schiff Base with Selective Activities against Enterococcus faecalis and Gastric Adenocarcinoma” (Molecules, 2021).

In experiment [1] the test system is AGS cell line. In words: Flow cytometry viability, FDA/PI double staining. The format is cell-based, human. The procedure: The flow cytometry analysis was performed to determine cell viability after treatment with a compound showing high proliferation inhibition in neutral red uptake assay. The test is based on FDA’s ability to pass through an intact cell membrane, where it can be hydrolyzed by cytoplasmic esterases to fluorescein, a bright green fluorophore. The protocol was based on a double-staining procedure with FDA and PI [75]. For stock solutions, FDA was dissolved in DMSO and PI in H2O to 1 mM concentrations. Cells were seeded in a 6-well plate with a density of 1 × 10^5 cell/well and maintained at 37 °C under 5% CO2 in a humidified atmosphere. After overnight incubation, cells were treated with a compound diluted to the following concentrations: 100, 80, 40, 10, and 1 µM. Flow cytometry analyses were performed after 24, 48, and 72 h incubation. For the analysis, both floating and adherent cells were collected, centrifuged at 1600 rpm, and washed with PBS. Cells were stained with FDA with a final concentration of 1 µM in PBS, and kept in the dark for 15 min. After incubation, cells were centrifuged, resuspended in ice-cold PBS, and kept on ice until analysis. Directly before testing, samples were stained with a 1 µM PI solution for 2 min. The acquisition was performed with a CyFlow® space flow cytometer, and data analyses were performed using the FloMax software (Partec, Münster, Germany). The percentage of viable cells was calculated based on FDA absorption according to the following formula:(2) % ViabilityFDA=% live cells under experimental conditions/% live cells from negative control×100
A general note: Flow cytometry measures light scatter and fluorescence of single cells or particles in a stream.

In experiment [2] the test system is AGS cell line. In words: Microscopic observation of cell and nucleus morphology, Hoechst 33342. The format is cell-based, human. As to conditions: 50 µM, 72 h. The procedure:
Morphological changes and DNA fragmentation were examined with an Olympus IX53 inverted fluorescence microscope after staining with Hoechst 33342 according to the manufacturer’s recommendations Thermo Scientific (Waltham, MA, USA). Briefly, cells were seeded in 12-well plates with a density of 1 × 10^5 cell/mL. After overnight incubation, the test substance was added in a half-maximal inhibitory (IC50) concentration and incubated for 24, 48, and 72 h. Before microscopic observation, both adherent and floating cells were collected, centrifuged, resuspended in PBS containing 1 µg/mL Hoechst 33342 dye. After 10 min incubation in the dark, the morphology of cells and DNA were visualized using a contrast phase and a UV filter.

The subject of experiment [3] is AGS cell line. In words: Comet assay (alkaline single-cell gel electrophoresis), DNA damage. The experiment is classed as cell-based, human. As to conditions: 50 µM. The procedure:
To evaluate DNA damage induced by incubation with 3, alkaline single-cell gel electrophoresis (comet assay) was performed. Cells were seeded in 12-well plates in a density of 1 × 10^5 cell/well. After overnight incubation, the tested compound in IC50 concentration (50 µM) was added. After incubation, cells were harvested, centrifuged, and resuspended in PBS. The cell suspension was mixed with 1% low melting point agarose and attached to the slide covered with 1% normal melting point agarose. Subsequently, slides were incubated in a buffer (pH 10.0) containing 2.5 M NaCl, 10 mM Tris-HCl buffer, 100 mM EDTA, and 1% Triton X-100 for 1 h. Then samples were transferred to alkaline electrophoresis buffer containing 0.3 M […] and 1mM EDTA for a 20 min incubation followed by electrophoresis performed at 25 V and 300 mA for 20 min. After electrophoresis, samples were incubated with a neutral pH buffer (0.4 M Tris-HCl, pH 7.5) for 10 min and washed with deionized water. After air-drying, samples were stained with Hoechst 33342 and visualized with a fluorescence microscope using a UV filter. The damages were visually scored from 100 randomly selected cells. […] Based on results, the damage index (DI) was calculated according to the following formula:(3) DI=0×n0+1×n1+2×n2+3×n3+4×n4, where n stands for the amount of each class.

In the next experiment the test system is A172. In words: Neutral red uptake assay, A172. The format is cell-based. As to conditions: Homo sapiens, A 172, 72 h exposure. How it is done: (§1) L-929 (mouse C3H/An connective tissue), Caco-2 (human colon adenocarcinoma), A172 (human glioblastoma), AGS (human gastric adenocarcinoma), HepaRG (human hepatoma cell), and HeLa (human cervix epithelioid carcinoma) cell lines were obtained from the European Collection of Authenticated Cell Cultures (ECACC) and provided by Sigma Aldrich/Merck (Munich, Germany). All cell lines were cultured in complete mediums prepared according to the ECACC recommendations and incubated in a humidified atmosphere with 5% CO2 at 37 °C. Neutral red uptake assay was performed according to the protocol. 24 h before treatment cells were seeded in 96-well plates in 1 × 10^5 cell/mL of complete medium. After incubation and attachment of cells, the medium was discarded, and test substances dissolved in the fresh medium were added to wells. Samples were tested after 24, 48, and 72 h incubation. A neutral red working solution (40 µg/mL) was prepared and incubated overnight. […] Absorption was measured using a Thermo Scientific™ (Waltham, MA, USA) Multiskan™ GO microplate spectrophotometer at 540 nm. […] Viability was calculated according to the following formula:(1) % Viability=ODtest substance−ODblind/ODnegative control−ODblind×100 Neutral red uptake assay was performed in quadruple (n = 4). Results were calculated to mean ± standard deviation (SD) using Microsoft Office Excel 2007. […]

The test system of another experiment is AGS. In words: Neutral red uptake assay, AGS. The format is cell-based. As to conditions: Homo sapiens, 72 h exposure. How it is done: as §1

For orientation: IC50 means the concentration that gives 50% inhibition. A low value points to greater potency in that assay. Regarding `CCOc1ccc(N=Cc2c(C)nc(-c3ccccc3)nc2Nc2ccc(F)cc2)cc1` [Compound 3, 5-[(4-ethoxyphenyl)imino]methyl-N-(4-fluorophenyl)-6-methyl-2-phenylpyrimidin-4-amine], the “cells in Q3 (unstained)” value in the experiment with AGS cell line [1] (100 µM) was determined as 43.72%. Moreover, the “cells in Q4 (PI stained, dead)” value in the experiment on AGS cell line [1] (100 µM) is 35.76%. In addition, the viability at 1 µM in the experiment with AGS cell line [1] (Homo sapiens, 1 µM, read-out: cells in Q1 (FDA stained, viable)) amounted to 81.5%. Moreover, in the experiment on AGS cell line [1] (Homo sapiens, 10 µM, read-out: cells in Q1 (FDA stained, viable)), the viability at 10 µM amounted to 66.4%. Further, in the experiment on AGS cell line [1] (Homo sapiens, 40 µM, read-out: cells in Q1 (FDA stained, viable)), the viability at 40 µM is 62.4%. In addition, the viability at 80 µM with AGS cell line [1] (Homo sapiens, 80 µM, read-out: cells in Q1 (FDA stained, viable)) came to 41.8%. In addition, the viability at 100 µM in the experiment with AGS cell line [1] (Homo sapiens, 100 µM, read-out: cells in Q1 (FDA stained, viable)) was determined as 20.2%. Also, the half-inhibitory concentration (IC50) in the experiment on AGS cell line [1] (Homo sapiens, referred to control with 1% DMSO) was 53 µM; with A172 it was 526 µM; with AGS it was 50.2 µM. Moreover, in the experiment on AGS cell line [2], the “cell and nucleus morphology” value is recorded as “broke apart into apoptotic bodies”. In addition, the “DNA damage index (DI)” value worked out at 183 in the experiment with AGS cell line [3] (48 h, control 52) and 259 in the experiment with AGS cell line [3] (72 h, control 20).
